Measurements: PMC12677843, “Multidisciplinary Preclinical Investigations on Ferrocenyl, Ruthenocenyl, and Benzyl Derivatives of Niridazole as New Drug Candidates against Schistosomiasis” (Chemmedchem, 2025)

Test system: juvenile S. mansoni
Test: In vitro drug sensitivity assay on juvenile S. mansoni
Type: cell-based, Schistosoma mansoni
Conditions: Schistosoma mansoni; 72 h incubation, 37 °C, 5% CO2
Description: Juvenile worms were gained through cultivation of NTS as previously described. 10 In short, NTS were obtained as described above, then directly after the mechanical transformation process the newly transformed schistosomula were placed in a special culturing medium. The culture medium consists of Panserin 401, w: L-Glutamine, serum free all-round medium (Pan Biotech, Aidenbach, Germany) supplemented with 20 % human serum and 500 U/mL penicillin, […] streptomycin (LuBioScience, Switzerland). 96-well transparent polystyrene flat bottom plates were used for the in vitro growth procedure, with 40 to 60 NTS per well in 100 µL culture medium. The bordering wells of the plate were filled solely with medium to counteract evaporation and to keep the humidity as steady as possible. The plates were incubated for 21 days at 5 % CO2 and at 37 °C, with regular medium changes every 3 to 4 days. After the 21 days culturing period, the schistosomulae developed into juveniles. For the drug sensitivity assay, juvenile worms were incubated over 72 h (5 % CO 2 and 37 °C) with the test compound in the same medium, as used for the culturing process. In a 96-well plate, 250 µL medium containing the test compound and six juvenile worms, ideally of both sexes were placed in each well. All compounds were tested twice independently at 50, 10, 5 and 1 µM in duplicates. The viability of the worms was evaluated microscopically after 24, 48 and 72 h of continuous drug exposure using the same phenotypic screening method as described before. […]

`O=C1NCCN1c1ncc([N+](=O)[O-])s1` [Niridazole, niridazole] gave an EC50 of 1800 nM.
